As a reminder, the IC50 is the concentration needed to halve the response being measured. In general, inhibition refers to how much of the control response was suppressed.

Each structure is given as a SMILES string. Calls of active or inactive are those of the source. No cut-off for these calls is given here.

Assay [1] is described as follows: Antioxidant activity assessed as ABTS radical scavenging activity incubated for 10 mins in dark. The format is functional.
For assay [2], the target named is T1, Amyloid-beta precursor protein (Homo sapiens, UniProt P05067). In words: Inhibition of HFIP-pretreated amyloid beta (1 to 42) (unknown origin) self-induced aggregation at 20 uM after 24 hrs by thioflavin-T fluorescence assay relative to control.
Assay [3] concerns the target T1, Amyloid-beta precursor protein. In words: Inhibition of HFIP-pretreated amyloid beta (1 to 42) (unknown origin) self-induced aggregation after 24 hrs by thioflavin-T fluorescence assay.
Assay [4] has the same target. In words: Disaggregation of Cu2+-induced amyloid beta (1 to 42) (unknown origin) preformed fibrils assessed as remaining amyloid beta aggregation level at […] after 24 hrs by thioflavin-T fluorescence assay.
Assay [5] shares this target. The assay is described as follows: Disaggregation of Fe3+-induced amyloid beta (1 to 42) (unknown origin) preformed fibrils assessed as remaining amyloid beta aggregation level at […] after 24 hrs by thioflavin-T fluorescence assay.
Assay [6] has the same target. The assay is described as follows: Disaggregation of Cu2+-induced amyloid beta (1 to 42) (unknown origin) preformed fibrils at 50 uM after 24 hrs by uranyl acetate staining based transmission electron microscopic analysis.
Assay [7] has the same target. In words: Disaggregation of Fe3+-induced amyloid beta (1 to 42) (unknown origin) preformed fibrils at 75 uM after 24 hrs by uranyl acetate staining based transmission electron microscopic analysis.
Assay [8] shares this target. In words: Disaggregation of self-induced amyloid beta (1 to 42) (unknown origin) preformed fibrils at 50 uM after 24 hrs by uranyl acetate staining based transmission electron microscopic analysis.
Assay [9] can be described thus: Metal chelating activity assessed as inhibition of Fe3+-induced amyloid beta (1 to 42 residues) fibrils by measuring fluorescence level after 24 hrs by thioflavin-T fluorescence assay. Also noted: scale not given: the % may be the effect or the level left.
Assay [10] can be described thus: Metal chelating activity assessed as compound-nitriloacetate Fe3+ complex formation by UV-spectrophotometric analysis.
Assay [11] in a line: Metal chelating activity assessed as inhibition of Cu2+-induced amyloid beta (1 to 42 residues) fibrils after 24 hrs by thioflavin-T fluorescence assay.
The nature of assay [12]: Metal chelating activity assessed as inhibition of Cu2+-induced amyloid beta (1 to 42 residues) fibrils at 50 uM after 24 hrs by uranyl acetate staining based transmission electron microscopic analysis.
A short description of assay [13]: Metal chelating activity assessed as inhibition of Fe3+-induced amyloid beta (1 to 42 residues) fibrils at 50 uM after 24 hrs by uranyl acetate staining based transmission electron microscopic analysis.
A short description of assay [14]: Metal chelating activity assessed as inhibition of Fe2+-induced amyloid beta (1 to 42 residues) fibrils after 24 hrs by thioflavin-T fluorescence assay.

T1 sequence (P05067 whole entry): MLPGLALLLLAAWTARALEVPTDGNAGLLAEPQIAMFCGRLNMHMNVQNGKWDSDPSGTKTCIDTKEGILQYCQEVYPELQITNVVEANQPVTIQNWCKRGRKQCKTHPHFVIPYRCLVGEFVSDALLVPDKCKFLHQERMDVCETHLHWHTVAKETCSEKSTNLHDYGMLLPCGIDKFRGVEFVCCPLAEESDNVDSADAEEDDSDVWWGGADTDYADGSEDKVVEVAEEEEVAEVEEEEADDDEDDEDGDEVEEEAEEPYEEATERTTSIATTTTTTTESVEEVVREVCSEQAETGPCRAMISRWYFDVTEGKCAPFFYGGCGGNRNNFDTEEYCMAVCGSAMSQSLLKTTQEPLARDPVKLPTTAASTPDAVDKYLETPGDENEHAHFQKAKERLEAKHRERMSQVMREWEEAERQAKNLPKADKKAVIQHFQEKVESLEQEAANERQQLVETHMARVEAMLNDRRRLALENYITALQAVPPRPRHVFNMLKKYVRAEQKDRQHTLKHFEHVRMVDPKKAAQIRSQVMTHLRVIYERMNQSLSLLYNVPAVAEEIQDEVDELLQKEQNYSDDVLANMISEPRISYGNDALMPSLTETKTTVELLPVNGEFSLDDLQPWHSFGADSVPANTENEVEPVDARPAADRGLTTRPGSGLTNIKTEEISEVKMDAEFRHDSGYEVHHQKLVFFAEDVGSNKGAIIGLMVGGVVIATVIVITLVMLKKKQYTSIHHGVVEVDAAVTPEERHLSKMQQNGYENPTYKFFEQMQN

As for `Cc1c(C)c2c(c(C)c1O)CCC(C)(C(=O)O)O2` (stereo unspecified) [TROLOX], the concentration for half-maximal inhibition (IC50) in assay [1] is 3.89 µM.
For `O=c1cc(/C=C/c2cccc(F)c2)occ1O`, the inhibition in assay [2] amounted to 58%. For the same molecule, the concentration for half-maximal inhibition (IC50) in [1] was 3.45 µM; in assay [3], 17.7 µM.
As to `O=c1cc(/C=C/c2cc(O)cc(O)c2)occ1O`, the inhibition in assay [2] was 56.9%. For the same molecule, the IC50 was 1.19 µM in assay [1] and 17.9 µM in [3].
In the case of `CN(C)c1ccc(/C=C/c2cc(=O)c(O)co2)cc1`, the inhibition in assay [2] was 61.2%. For the same molecule, the 50% inhibitory concentration (IC50) was 3.05 µM in [1] and 5.92 µM in assay [3].
For `O=c1cc(/C=C/c2ccccc2)occ1O`, the inhibition in assay [2] was determined as 42.5%. The half-maximal inhibitory concentration (IC50) in assay [1] worked out at 2.25 µM.
Turning to `COc1cc(/C=C/c2cc(=O)c(O)co2)cc(OC)c1`, in [2], the inhibition was 18.6%. Further, the concentration for half-maximal inhibition (IC50) in assay [1] was determined as 1.79 µM.
In the case of `O=c1cc(/C=C/c2ccc([N+](=O)[O-])cc2)occ1O`, in assay [1], the half-maximal inhibitory concentration (IC50) was found to be 1.7 µM.
Consider `COc1ccccc1/C=C/c1cc(=O)c(O)co1`, for which the inhibition in assay [2] is 61.1%. Besides, the figures for the IC50 in assay [1] and in assay [3] were 3.47 µM and 7.93 µM, respectively.
Regarding `CCOc1ccc(/C=C/c2cc(=O)c(O)co2)cc1`, the inhibition in [2] worked out at 38.2%. In addition, the IC50 in assay [1] stood at 4.21 µM.
On to `O=c1cc(/C=C/c2ccc(O)cc2)occ1O`, for which the values for the Activity in assay [4], in [5] and in [9] were 68%, 14% and 19%, respectively. Also, the result in [6], in assay [7], in [8] and in [10] was Active. Moreover, in assay [2], the inhibition was 68.5%. Further, the IC50 in [1] amounted to 1.94 µM; in assay [3], 7.2 µM. Also, the inhibition entry in assay [11] and in assay [14] was “inactive” in each case. The inhibition result in assay [12] and in [13] was “Active” in each case.
As for `O=c1cc(/C=C/c2ccc(Cl)cc2)occ1O`, the inhibition in assay [2] is 18%. For the same molecule, the IC50 in assay [1] is 1.95 µM.
For the molecule `Oc1ccc(/C=C/c2cc(O)cc(O)c2)cc1` [RESVERATROL], in [5], the Activity was 58%. The result in assay [6], in assay [7] and in assay [8] was Active. The concentration for half-maximal inhibition (IC50) in assay [1] came to 0.76 µM. The inhibition result in assay [12] and in [13] was “Active” in each case.
For `O=c1cc(/C=C/c2ccccc2O)occ1O`, the Activity was 62% in [4], 17% in assay [5] and 16% in [9]. The outcome in [6], in assay [7] and in [8] was Active. For the same molecule, in assay [2], the inhibition is 63.6%. Also, the figures for the IC50 in [1] and in assay [3] were 1.18 µM and 8.29 µM, respectively. Further, the inhibition result in [11] and in [14] was “inactive” each time. In addition, the inhibition result in assay [12] and in assay [13] was “Active” throughout.

(Values after ChEMBL document CHEMBL4261624, “Resveratrol-maltol hybrids as multi-target-directed agents for Alzheimer's disease” (Bioorg Med Chem, 2018).)
